One substance from patent publication US8022036B2, “Use of thymosin alpha 1 for the treatment of immunological diseases” (Sigma-Tau Industrie Farmaceutiche Riunite S.p.A., priority 2006, dated 2011) can be followed below.

No end group written: not given here.

One assay relates to GM-DCs or FL-DCs. Kind of assay: Cytokine production and T cell priming by human DCs (ELISA). Type of assay: cell-based. The source says:
GM-DCs or FL-DCs were obtained from purified CD14+ monocytes from healthy donors or transplanted patients (1 month post-HSCT) cultured in Iscove's modified medium for 7-9 days, in the presence of rGM-CSF (Schering-Plough, Milan, Italy) and rIL-4 (Peprotech, Inalco, Milan, Italy) or FLT3-L (Immunex Corporation, Seattle, Wash.) (Blood. 2004; 103:4232-4239). DC recovery was between 20-30% reduced in cultures from transplanted patients. Murine GM-DCs or FL-DCs were obtained from bone marrow cells for 7-9 days, as described (Blood. 2004; 103:4232-4239). Thymosin alpha 1 and sThymosin alpha 1 were added to the cultures at 20 ng/mL. DCs (>99% CD11c+ consisting of 90-95% CD8-, 5-10% CD8+, and 1-5% B220+ cells) were purified from spleens (spDCs) by magnetic-activated sorting using CD11c MicroBeads and MidiMacs (Miltenyi Biotech). DC populations were further separated into CD8−, CD8+ and B220+ fractions by means of CD8 or B220 MicroBeads (Miltenyi Biotech). DCs were pulsed in serum-free Iscove medium for 24 hours with live unopsonized Aspergillus conidia or Zymosan from Saccharomyces cerevisiae (Sigma) or CpG-ODN 2006 as described.7 Phagocytosis was done as described (Blood. 2004; 103:4232-4239). Photographs were taken using a high Resolution Microscopy Color Camera AxioCam, using the AxioVision Software Rel. 3.1 (Carl Zeiss, Milan, Italy).
Cytokine content was assessed by enzyme-linked immunosorbent assays (Endogen Human Elisa Kits, R&D Systems and Euroclone, Milan, Italy). AID EliSpot assay kits (Amplimedical, Buttigliera Alta, Turin, Italy) were used on purified splenic CD4+ Tcells cocultured with conidia-pulsed DCs for 5 days to enumerate cytokine-producing cells (Blood. 2003; 102:3807-3814). 1-MT was used at 2 μM.
(C) Cytokine production (pg/mL by ELISA) by Thymosin alpha 1-induced DCs from healthy donors cultured in serum-free medium (1×10^6 cells/mL) with unopsonized Aspergillus conidia (5×10^5/mL) or 10 μg/mL Zymosan or 2 μg/mL CpG-B ODN 2006 for 24 hours. The data shown are aggregated results from three independent experiments and presented in the mean±SD. […]
In general terms: An ELISA detects its analyte on a solid surface through an enzyme-linked reagent.

The test system of assay [1] is lung homogenates, TLN CD4+ T cells. Description: Inflammatory/Th/T reg responses in lung and TLN of infected HSCT mice given DCs (ELISA, ELISPOT, RT-PCR, flow cytometry). Type of assay: in vivo, mouse. As to the method:
Mice received twice intraperitoneal injections of DCs, at weekly interval, starting a day after HSCT and infected a week after the last DC administration. Three days later, lung homogenates, CD4+ T cells (>98% on FACS analysis), CD4+CD25− (>98%) or CD4+CD25+ (>82%) purified with the specific Miltenyi Biotec isolation kits were assessed for pattern of pro- and anti-inflammatory (TNF-a/IL-10 in lung homogenates), Th1 (IFN-γ) or Th2 (IL-4) cytokine production by CD4+ cells stimulated with Aspergillus-pulsed DCs (Blood. 2003; 102:3807-3814) frequency of CD25+ IL-10^+ TGF-β+ T reg cells, lymphoproliferation and gene expression by RT-PCR. For proliferation, TLN CD4+ T lymphocytes were plated (10^5 cells/well) with 10^5 cells/well irradiated allogeneic splenocytes or autologous spDCs pulsed with conidia or 10 μg/mL Con A for five days before H^3-thymidine labeling.
RNA extraction, synthesis and PCR of cDNA, sequences of gene-specific primers, annealing temperatures and amplification cycles were done as described in J. Immunol. 2006; 176:1712-1723). Amplification efficiencies were validated and normalized against GAPDH.
(A) TNF-a/IL-10 levels were assessed by specific ELISA in lung homogenates and IFN-γ/IL-4 production were assessed in TLN CD4+ T cells cocultured with Aspergillus-pulsed DCs. Bars indicate standard errors. TLN CD4+CD25+ T cells producing IL-10 or TGF-β were numbered by ELISPOT assay. Results are expressed as the mean number of cytokine-producing cells (±SE) per 2×10^5 cells. *P<0.05, DC-treated versus untreated mice. (**) P<0.05, Thymosin alpha 1-treated DCs versus untreated DCs.
(B) Total RNA was extracted from freshly purified CD4+ T cells from TLN of treated or untreated (None) mice. The expressions of the different mRNAs in each cell population were determined by RT-PCR. The expression of a housekeeping gene, Gapdh mRNA, was used as an internal control. The data shown are representative results of three experiments.
(C) Phenotypic analysis of cells isolated from lung or TLN of mice infused or not (None) with different types of DCs, (−) indicating uninfected, untreated mice. CD4+ T cells were sequentially reacted with PE-conjugated anti-CD25 (PC61) and FITC-conjugated anti-CD69 (clone H1.2F3) mAbs. Numbers represent the percentage of positive cells over total cells analyzed. Control staining of cells with irrelevant Ab was used to obtain background fluorescence values. Histograms are representative of one out of four independent experiments.

Setting [2] is: mice given Thymosin alpha 1-treated GM-DCs.

On to “Thymosin alpha 1: naturally occurring thymic peptide; supplied as purified, endotoxin-free sterile lyophilized acetylated polypeptide from SciClone Pharmaceuticals (Ac-SDAAVDTSSEITTKDLKEKKEVVEEAEN; UniProt P06454 2-29, looked up)”, for which the “IL-10 production by GM-DCs” value with GM-DCs or FL-DCs (healthy donors, Aspergillus conidia, 24 hours) is recorded as “produced increased levels of IL-10”. Moreover, the IFN-a production entry with GM-DCs or FL-DCs (in response to Aspergillus conidia, Zymosan or CpG ODN) was “mainly produced by FL-DCs or Thymosin alpha 1-treated GM-DCs”. Also, the “priming for IL-10-producing CD4+ T cells” value in the assay with GM-DCs or FL-DCs (in vitro, Thymosin alpha 1-treated GM-DCs) was “primed for IL-10-producing CD4+ T cells in vitro”. In addition, the “compartmentalization of induced T reg (lungs vs TLN), FL-DCs” value in assay [1] (Thymosin alpha 1-treated FL-DCs) is “the opposite was true”. The “TNF-a/IL-10 production in lung homogenates” value in assay [1] (Thymosin alpha 1-treated GM-DCs, compared with TNF-a high, IL-10 low in untreated or GM-DC mice) is on record as “the reverse being true”. For the same substance, the “compartmentalization of induced T reg (lungs vs TLN), GM-DCs” value in assay [1] (Thymosin alpha 1 treated GM-DCs) is “induced T reg in the lungs more than TLN”. In assay [1] (setting [2]), the “CD62L marker on CD25+ T cells” value is listed as “stained positive”, the “Foxp3 mRNA in TLN CD4+ T cells (RT-PCR)” value is recorded as “expressed”, the “IFN-γ production by TLN CD4+ T cells” value is recorded as “higher” and the “IL-4 production by TLN CD4+ T cells” value is recorded as “lower”. Moreover, the “CD69 activation marker on CD4+CD25+ T cells” value in assay [1] (mice given Thymosin alpha 1-treated GM-DCs or FL-DCs) is recorded as “did not stain positive”.
